Data reported in patent US8815909B2, “Diaminocyclohexane compounds and uses thereof” (Bristol-Myers Squibb Company, priority 2011, dated 2014).

Biological target: T1, human Y4 receptor (Homo sapiens, UniProt P50391)
T1 construct: expressed in transfected cells
Test: NPY4 cAMP HTRF Agonist Assay (inhibitory cAMP assay, Gi activation by Y4 agonism)
Format: cell-based
Settings: human Y4 stable CHO clonal cells, forskolin + IBMX; read-out: NPY4 cAMP HTRF Agonist Assay EC50
Procedure, shortened: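 Y4 agonism read as lowered forskolin-stimulated cAMP (HTRF, 1 h detection at room temperature). Stable human Y4 CHO clone, 5000 cells/well, incubated 30 min at room temperature with compounds plus forskolin and IBMX in PBS.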

T1 sequence (P50391 whole entry): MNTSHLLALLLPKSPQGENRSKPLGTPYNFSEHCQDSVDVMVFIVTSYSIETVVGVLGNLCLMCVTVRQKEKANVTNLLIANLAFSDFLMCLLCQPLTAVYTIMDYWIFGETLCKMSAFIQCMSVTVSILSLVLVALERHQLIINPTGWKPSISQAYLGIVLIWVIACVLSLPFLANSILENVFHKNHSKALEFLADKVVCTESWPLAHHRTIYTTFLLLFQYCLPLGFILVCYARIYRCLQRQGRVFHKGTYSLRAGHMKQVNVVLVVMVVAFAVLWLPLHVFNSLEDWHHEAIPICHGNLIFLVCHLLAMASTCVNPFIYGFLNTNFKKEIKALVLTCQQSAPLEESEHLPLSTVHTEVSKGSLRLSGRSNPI

`O=[N+]([O-])c1cnc(N2CCC[C@H](N[C@@H]3CCCC[C@H]3Nc3ncc(-c4ccccc4)o3)C2)nc1` [Example 77, (1R,2R)—N1-((S)-1-(5-Nitropyrimidin-2-yl)piperidin-3-yl)-N2-(5-phenyloxazol-2-yl)cyclohexane-1,2-diamine bis-trifluoroacetate] was tested, and the EC50 was 34 nM.

For `O=[N+]([O-])c1cnc(N2CCC[C@H](N[C@@H]3CCCC[C@H]3Nc3ncc(-c4ccc(OC(F)(F)F)cc4)o3)C2)nc1` [Example 78, (1R,2R)—N1-((S)-1-(5-Nitropyrimidin-2-yl)piperidin-3-yl)-N2-(5-(4-(trifluoromethoxy)phenyl)oxazol-2-yl)cyclohexane-1,2-diamine bis-trifluoroacetate], the EC50 was 75 nM.

`FC(F)(F)c1cnc(N2CCC[C@H](N[C@@H]3CCCC[C@H]3Nc3ncc(-c4ccccc4)o3)C2)nc1` [Example 79, (1R,2R)—N1-(5-Phenyloxazol-2-yl)-N2-((S)-1-(5-(trifluoromethyl)pyrimidin-2-yl)piperidin-3-yl)cyclohexane-1,2-diamine bis-trifluoroacetate] gave an EC50 of 83 nM.

For `FC(F)(F)Oc1ccc(-c2cnc(N[C@@H]3CCCC[C@H]3N[C@H]3CCCN(c4ncc(C(F)(F)F)cn4)C3)o2)cc1` [Example 80, (1R,2R)—N1-(5-(4-(Trifluoromethoxy)phenyl)oxazol-2-yl)-N2-((S)-1-(5-(trifluoromethyl)pyrimidin-2-yl)piperidin-3-yl)cyclohexane-1,2-diamine bis-trifluoroacetate], the EC50 was 242 nM.

Work on `N#Cc1cnc(N2CCC[C@H](N[C@@H]3CCCC[C@H]3Nc3ncc(-c4ccc(OC(F)(F)F)cc4)o3)C2)nc1` [Example 81, 2-((S)-3-((1R,2R)-2-(5-(4-(Trifluoromethoxy)phenyl)oxazol-2-ylamino)cyclohexylamino)piperidin-1-yl)pyrimidine-5-carbonitrile bis-trifluoroacetate] yielded an EC50 of 41 nM.

For `N#Cc1cnc(N2CCC[C@H](N[C@@H]3CCCC[C@H]3Nc3ncc(-c4ccccc4)o3)C2)nc1` [Example 82, 2-((S)-3-((1R,2R)-2-(5-Phenyloxazol-2-ylamino)cyclohexylamino)piperidin-1-yl)pyrimidine-5-carbonitrile], the EC50 was 107 nM.

`Cc1nnc(-c2ccc(N3CCC[C@H](N[C@@H]4CCCC[C@H]4Nc4ncc(-c5ccccc5)o4)C3)cc2)o1` [Example 83, (1R,2R)—N1-((S)-1-(4-(5-Methyl-1,3,4-oxadiazol-2-yl)phenyl)piperidin-3-yl)-N2-(5-phenyloxazol-2-yl)cyclohexane-1,2-diamine bis-trifluoroacetate] was tested, and the EC50 was 9 nM.

`Cc1nnc(-c2ccc(N3CCC[C@H](N[C@@H]4CCCC[C@H]4Nc4nccc(-c5ccccc5)n4)C3)cc2)o1` [Example 84, (1R,2R)—N1-((S)-1-(4-(5-Methyl-1,3,4-oxadiazol-2-yl)phenyl)piperidin-3-yl)-N2-(4-phenylpyrimidin-2-yl)cyclohexane-1,2-diamine bis-trifluoroacetate] gave an EC50 of 9 nM.

`Cc1nnc(-c2ccc(N3CCC[C@H](N[C@@H]4CCCC[C@H]4Nc4ncc(-c5ccc(OC(F)(F)F)cc5)o4)C3)cc2)o1` [Example 85, (1R,2R)—N1-((S)-1-(4-(5-Methyl-1,3,4-oxadiazol-2-yl)phenyl)piperidin-3-yl)-N2-(5-(4-(trifluoromethoxy)phenyl)oxazol-2-yl)cyclohexane-1,2-diamine] was tested, and the EC50 was 145 nM.

`FC(F)(F)Oc1ccc(N2CCC[C@H](N[C@@H]3CCCC[C@H]3Nc3ncc(-c4ccccc4)o3)C2)cc1` [Example 86, (1R,2R)—N1-(5-Phenyloxazol-2-yl)-N2-((S)-1-(4-(trifluoromethoxy)phenyl)piperidin-3-yl)cyclohexane-1,2-diamine] showed an EC50 of 91 nM.

With `FC(F)(F)Oc1ccc(-c2cnc(N[C@@H]3CCCC[C@H]3N[C@H]3CCCN(c4ccc(OC(F)(F)F)cc4)C3)o2)cc1` [Example 87, (1R,2R)—N1-(5-(4-(Trifluoromethoxy)phenyl)oxazol-2-yl)-N2-((S)-1-(4-(trifluoromethoxy)phenyl)piperidin-3-yl)cyclohexane-1,2-diamine] the EC50 was 185 nM.

Work on `FC(F)(F)Oc1ccc(N2CCC[C@H](N[C@@H]3CCCC[C@H]3Nc3nccc(-c4ccccc4)n3)C2)cc1` [Example 88, (1R,2R)—N1-(4-Phenylpyrimidin-2-yl)-N2-((S)-1-(4-(trifluoromethoxy)phenyl)piperidin-3-yl)cyclohexane-1,2-diamine] yielded an EC50 of 704 nM.

In the case of `FC(F)(F)Oc1ccc(-c2cnc(N[C@@H]3CCCC[C@H]3N[C@H]3CCCN(c4ccc(-n5cncn5)cc4)C3)o2)cc1` [Example 89, (1R,2R)—N1-((S)-1-(4-(1H-1,2,4-Triazol-1-yl)phenyl)piperidin-3-yl)-N2-(5-(4-(trifluoromethoxy)phenyl)oxazol-2-yl)cyclohexane-1,2-diamine bis-trifluoroacetate], the EC50 is reported as 58 nM.

Compound `c1ccc(-c2cnc(N[C@@H]3CCCC[C@H]3N[C@H]3CCCN(c4ccc(-n5cncn5)cc4)C3)o2)cc1` [Example 90, (1R,2R)—N1-((S)-1-(4-(1H-1,2,4-Triazol-1-yl)phenyl)piperidin-3-yl)-N2-(5-phenyloxazol-2-yl)cyclohexane-1,2-diamine bis-trifluoroacetate] has an EC50 of 132 nM.

Compound `c1ccc(-c2ccnc(N[C@@H]3CCCC[C@H]3N[C@H]3CCCN(c4ccc(-n5cncn5)cc4)C3)n2)cc1` [Example 91, (1R,2R)—N1-((S)-1-(4-(1H-1,2,4-Triazol-1-yl)phenyl)piperidin-3-yl)-N2-(4-phenylpyrimidin-2-yl)cyclohexane-1,2-diamine bis-trifluoroacetate] has an EC50 of 288 nM.

`Ic1ccc(N2CCC[C@H](N[C@@H]3CCCC[C@H]3Nc3nccc(-c4ccccc4)n3)C2)cc1` [Example 92, (1R,2R)—N1-((S)-1-(4-Iodophenyl)piperidin-3-yl)-N2-(4-phenylpyrimidin-2-yl)cyclohexane-1,2-diamine bis-trifluoroacetate] showed an EC50 of 469 nM.

`FC(F)(F)Oc1ccc(-c2cnc(N[C@@H]3CCCC[C@H]3N[C@H]3CCCN(c4ccc(I)cc4)C3)o2)cc1` [Example 93, (1R,2R)—N1-((S)-1-(4-Iodophenyl)piperidin-3-yl)-N2-(5-(4-(trifluoromethoxy)phenyl)oxazol-2-yl)cyclohexane-1,2-diamine bis-trifluoroacetate] showed an EC50 of 33 nM.

For `FC(F)(F)Oc1ccc(-c2cnc(N[C@@H]3CCCC[C@H]3N[C@H]3CCCN(c4ccc(C(F)(F)F)cn4)C3)o2)cc1` [Example 94, (1R,2R)—N1-(5-(4-(Trifluoromethoxy)phenyl)oxazol-2-yl)-N2-((S)-1-(5-(trifluoromethyl)pyridin-2-yl)piperidin-3-yl)cyclohexane-1,2-diamine], the EC50 was 210 nM.

For `N#Cc1ccc(N2C[C@@H]3CC(N[C@@H]4CCCC[C@H]4Nc4ncc(-c5ccc(OC(F)(F)F)cc5)o4)[C@H]2C3)cc1` (stereo partly drawn) [Example 95, 4-((1R,4R)-6-((1R,2R)-2-(5-(4-(Trifluoromethoxy)phenyl)oxazol-2-ylamino)cyclohexylamino)-2-azabicyclo[2.2.1]heptan-2-yl)benzonitrile], the EC50 was 10 nM.

With `C[C@]1(N[C@@H]2CCCC[C@H]2Nc2ncc(-c3ccc(OC(F)(F)F)cc3)o2)CCCN(c2ccc([N+](=O)[O-])cc2)C1` [Example 96, (1R,2R)—N1-((S)-3-Methyl-1-(4-nitrophenyl)piperidin-3-yl)-N2-(5-(4-(trifluoromethoxy)phenyl)oxazol-2-yl)cyclohexane-1,2-diamine bis-trifluoroacetate] the EC50 was 1 nM.

Work on `NC(=O)c1cccc(-c2cnc(N[C@@H]3CCCC[C@H]3N[C@H]3CCCN(c4cnc(C(F)(F)F)nc4)C3)o2)c1` [Example 97, 3-(2-(((1R,2R)-2-(((S)-1-(2-(trifluoromethyl)pyrimidin-5-yl)piperidin-3-yl)amino)cyclohexyl)amino)oxazol-5-yl)benzamide] yielded an EC50 of 6 nM.

`CCOC(=O)Nc1cccc(-c2cnc(N[C@@H]3CCCC[C@H]3N[C@H]3CCCN(c4cnc(C(F)(F)F)cn4)C3)o2)c1` [Example 98, Ethyl 3-(2-((1R,2R)-2-((S)-1-(5-(trifluoromethyl)pyrazin-2-yl)piperidin-3-ylamino)cyclohexylamino)oxazol-5-yl)phenylcarbamate] was tested, and the EC50 was 0.7 nM.

Compound `O=C(NC1CC1)c1cccc(-c2cnc(N[C@@H]3CCCC[C@H]3N[C@H]3CCCN(c4ccc(C(F)(F)F)nc4)C3)o2)c1` [Example 99, N-cyclopropyl-(3-(2-((1R,2R)-2((S)-1-(6-trifluoromethyl)pyridin-3yl)piperidin-3-ylamino)cyclohexylamino)oxazol-5-yl)benzamide] has an EC50 of 0.8 nM.

`COC(=O)Nc1cccc(-c2cnc(N[C@@H]3CCCC[C@H]3N[C@H]3CCCN(c4ccc(C(F)(F)F)cc4)C3)o2)c1` [Example 100, Methyl (3-(2-((1R,2R)-2(S)-1-(4-trifluoromethyl)phenylpiperidin-3-ylamino)cyclohexylamino)oxazol-5-yl)phenylcarbamate] was tested, and the EC50 was 3 nM.

`CCOC(=O)Nc1cccc(-c2cnc(N[C@@H]3CCCC[C@H]3N[C@H]3CCCN(c4ccc(C(F)(F)F)cc4)C3)o2)c1` [Example 101, Ethyl (3-(2-((1R,2R)-2(S)-1-(4-trifluoromethyl)phenylpiperidin-3-ylamino)cyclohexylamino)oxazol-5-yl)phenylcarbamate] showed an EC50 of 2 nM.

`CCOC(=O)Nc1cccc(-c2cnc(N[C@@H]3CCCC[C@H]3N[C@H]3CCCN(c4ccc(C(F)(F)F)nc4)C3)o2)c1` [Example 102] was tested, and the EC50 was 0.4 nM.

With `COC(=O)Nc1cccc(-c2cnc(N[C@@H]3CCCC[C@H]3N[C@H]3CCCN(c4cnc(C(F)(F)F)nc4)C3)o2)c1` [Example 103, Methyl (3-(2-((1R,2R)-2((S)-1-(2-trifluoromethyl)pyrimidin-5-yl)piperidin-3-ylamino)cyclohexylamino)oxazol-5-yl)phenylcarbamate] the EC50 was 3 nM.

In the case of `NC(=O)c1cccc(-c2cnc(N[C@@H]3CCCC[C@H]3N[C@H]3CCCN(c4ccc(C(F)(F)F)cc4)C3)o2)c1` [Example 104, (3-(2-((1R,2R)-2((S)-1-(4-trifluoromethyl)phenyl)piperidin-3-ylamino)cyclohexylamino)oxazol-5-yl)benzamide], the EC50 is reported as 0.2 nM.
